Reference: PubChem BioAssay (NCI)
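Dose response: 5 concentrations. Exposure: 48 h. Format: 96-well plates. Endpoint: linear interpolation; highest concentration if not reached. The concentration for 50% growth inhibition is given as GI50. TGI denotes the concentration required for complete inhibition of growth.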

Tests used:
Test in all cases: DTP human tumour cell line panel, 48 h
[1] = system: HS 578T breast
[2] = system: SK-OV-3 ovarian
[3] = system: RPMI-8226 leukemia
[4] = system: LOX IMVI melanoma
[5] = system: OVCAR-5 ovarian
[6] = system: MDA-MB-435
[7] = system: SK-MEL-28 melanoma
[8] = system: HOP-62 NSCLC
[9] = system: A549 NSCLC
[10] = system: MCF7 breast
[11] = system: SW-620 colon
[12] = system: UACC-257 melanoma
[13] = system: UACC-62 melanoma
[14] = system: CCRF-CEM leukemia
[15] = system: SF-268 CNS
[16] = system: HT29 colon
[17] = system: T-47D breast
[18] = system: CAKI-1 renal
[19] = system: IGROV1 ovarian
[20] = system: SR leukemia
[21] = system: NCI-H522 lung
[22] = system: KM12 colon
[23] = system: HCT-116 colon
[24] = system: HL-60(TB) leukemia
[25] = system: NCI-H226 lung
[26] = system: HCC-2998 colon
[27] = system: OVCAR-8 ovarian
[28] = system: SF-539 CNS

## Cc1nc(N)sc1-c1csc(Nc2ccc(C(F)(F)F)cc2)n1
[1]
  GI50: 2.84 µM
  TGI: 23.6 µM
[2]
  GI50: 16.4 µM
  TGI: 33.4 µM
[3]
  GI50: 3.98 µM
  TGI: 72.3 µM
[4]
  GI50: 2.44 µM
  TGI: 9.9 µM
[5]
  GI50: 4.42 µM
  TGI: 18.9 µM
[6]
  GI50: 4.43 µM
  TGI: 17.4 µM
[7]
  GI50: 10.2 µM
  TGI: 21.9 µM
[8]
  GI50: 7.86 µM
  TGI: 26.4 µM
[9]
  GI50: 7.34 µM
  TGI: 35.8 µM
[10]
  GI50: 2.65 µM
  TGI: 16 µM
[11]
  GI50: 4.92 µM
  TGI: 19.5 µM
[12]
  GI50: 9.37 µM
  TGI: 22.1 µM
[13]
  GI50: 8.61 µM
  TGI: 21 µM
[14]
  GI50: 3.22 µM
  TGI: 53 µM
[15]
  GI50: 6.75 µM
  TGI: 22.6 µM
[16]
  GI50: 2.49 µM
  TGI: 7.09 µM
[17]
  GI50: 1.65 µM
  TGI: 10.1 µM
[18]
  GI50: 3.62 µM
  TGI: 17.5 µM
[19]
  GI50: 2.01 µM
  TGI: 14.7 µM
[20]
  GI50: 3.6 µM
  TGI: 24.2 µM
[21]
  GI50: 4.75 µM
  TGI: 18.7 µM
[22]
  GI50: 3.55 µM
  TGI: 14.5 µM
[23]
  GI50: 3.36 µM
  TGI: 16 µM
[24]
  GI50: 13.2 µM
  TGI: 32.2 µM
[25]
  GI50: 2.72 µM
  TGI: 24.3 µM
[26]
  GI50: 4.66 µM
  TGI: 17.3 µM
[27]
  GI50: 11.1 µM
  TGI: 25.6 µM
[28]
  GI50: 6.69 µM
  TGI: 20 µM
